Results from publication PMC3474771, “Evaluation of 14 Organic Solvents and Carriers for Screening Applications in Zebrafish Embryos and Larvae” (PLoS ONE, 2012).
Where two headings read alike, the source gives them in different places.

Key:
zebrafish = test system: zebrafish; parameters: method as in PMID 18646521; conditions: 0.01% acetone; cited from earlier work
[1] = test system: zebrafish embryos and larvae; conditions: for Maximum-tolerated concentration (MTC): highest concentration with no phenotypic abnormalities, followed to 9 dpf; for Phenotypic effects above MTC after 24 hours (average penetrance at least 50%): at the concentration in parentheses
Protocol: Zebrafish embryos of the AB wild-type strain (originally obtained from the Zebrafish International Resource Center, Eugene, Oregon, USA) were raised at 28°C. Zebrafish husbandry, embryo collection, and embryo and larva maintenance were performed as described, [21]. Toxicity assays were standardly performed in 24-well microtiter plates (wrapped with Parafilm to limit solvent evaporation) using 10 embryos per well in 1 ml of 0.3× Danieau's medium (17 mM NaCl, 2 mM KCl, 0.12 mM MgSO4, 1.8 mM Ca(NO3)2 and 1.5 mM HEPES, pH 7.6). Each experiment was repeated 3 times for a total of 30 embryos or larvae analyzed per solvent per developmental staged tested. Data were only recorded for experiments in which the percentage of normal embryos or larvae in the control group was at least 90%. […] In determining the maximum tolerated concentration (MTC) for each solvent and carrier, all post-exposure embryos and larvae were allowed to develop in larva medium to 9 dpf, so as to detect any deleterious effects appearing after this 24-hour window. Solvents and carriers were obtained from the following suppliers: acetone (Chemlab, Zedelgem, Belgium), acetonitrile (Acros Organics, Geel, Belgium), albumin (BSA, Sigma-Aldrich, Bornem, Belgium), butanone (Riedel-de Haën, Seelze, Germany), cyclodextrin (2- hydroxypropyl-beta-cyclodextrin, Sigma-Aldrich), dimethyl formamide (Acros), DMSO (Agros), ethanol (Fisher Scientific, Doornik, Belgium), glycerol (Acros), isopropanol (Chemlab), methanol (Chemlab), polyethylene glycol-400 (Fluka, Bornem, Belgium), propylene glycol (Certa, Eigenbrakel, Belgium), solketal (Merck, Overijse, Belgium). Statistical analyses were done using chi-square in Microsoft Excel.
Twelve solvents and 2 carriers – chosen based solely on their potential utility for the solubilization and delivery of a structurally diverse range of small molecules – were analyzed for their effects on zebrafish embryos and larvae. The solvents included acetone, acetonitrile, butanone, dimethyl formamide, DMSO, ethanol, glycerol, isopropanol, methanol, polyethylene glycol (PEG-400), propylene glycol, and solketal, and the carriers included albumin (BSA) and cyclodextrin (2-hydroxypropyl-beta-cyclodextrin, or HPBCD). […] For this initial study, the effects of a 24-hour exposure to each solvent and carrier was analyzed using embryos and larvae at the following developmental stages: 2–4 cell, 4 hours-post fertilization (hpf), and 1, 2, 3, 4, and 7 days post-fertilization (dpf).

rat embryos = conditions: cited from earlier work
zebrafish embryos = test system: zebrafish embryos; parameters: method as in PMID 16125774; conditions: 2% DMSO; cited from earlier work
early embryos = test system: early embryos; parameters: method as in PMID 18031801; conditions: solutions containing between 5 and 10% of this solvent; cited from earlier work
[2] = exposure for 24 hours beginning at 1 dpf
[3] = exposure for 24 hours beginning at 2 dpf
[4] = exposure for 24 hours beginning at 2–4 cell stage
[5] = exposure for 24 hours beginning at 3 dpf
[6] = exposure for 24 hours beginning at 4 dpf
[7] = exposure for 24 hours beginning at 4 hpf
[8] = exposure for 24 hours beginning at 5 dpf
[9] = exposure for 24 hours beginning at 7 dpf

Compound	Lowest concentration at which an average penetrance of at least 50% was observed for the phenotypic effects ([1]; 24 hours exposure from 7 dpf)	Maximum-tolerated concentration (MTC) [1, 2]	Maximum-tolerated concentration (MTC) [1, 3]	Maximum-tolerated concentration (MTC) [1, 4]	Maximum-tolerated concentration (MTC) [1, 5]	Maximum-tolerated concentration (MTC) [1, 6]	Maximum-tolerated concentration (MTC) [1, 7]	Maximum-tolerated concentration (MTC) [1, 8]	Maximum-tolerated concentration (MTC) [1, 9]	Lowest concentration at which an average penetrance of at least 50% was observed for the phenotypic effects ([1]; 24 hours exposure from 1 dpf)	Lowest concentration at which an average penetrance of at least 50% was observed for the phenotypic effects ([1]; 24 hours exposure from 2 dpf)	Lowest concentration at which an average penetrance of at least 50% was observed for the phenotypic effects ([1]; 24 hours exposure from 3 dpf)	Lowest concentration at which an average penetrance of at least 50% was observed for the phenotypic effects ([1]; 24 hours exposure from 4 dpf)	Lowest concentration at which an average penetrance of at least 50% was observed for the phenotypic effects ([1]; 24 hours exposure from 4 hpf)	Lowest concentration at which an average penetrance of at least 50% was observed for the phenotypic effects ([1]; 24 hours exposure from 5 dpf)	Phenotypic effects above MTC after 24 hours (average penetrance at least 50%) ([1]; exposure from 1 dpf)	Phenotypic effects above MTC after 24 hours (average penetrance at least 50%) ([1]; exposure from 3 dpf)	Phenotypic effects above MTC after 24 hours (average penetrance at least 50%) ([1]; exposure from 4 dpf)	Phenotypic effects above MTC after 24 hours (average penetrance at least 50%) ([1]; exposure from 5 dpf)	Phenotypic effects above MTC after 24 hours (average penetrance at least 50%) ([1]; exposure from 7 dpf)	further results
CC(C)=O [Acetone, acetone]	0.5%	1.5%	1.5%	2%	≥2.5%	1.5%	2%	<0.5%	<0.5%												Toxicity of negative controls with solvent (zebrafish): no signs of toxicity; Maximum-tolerated concentration (MTC) ([1]; exposure for 24 hours beginning at 3 dpf, listed as acetone): ≥ 2.5%
CC#N [Acetonitrile, acetonitrile]	0.5%	1%		<0.5%	1%					2.5%	1.5%	1.5%	1.5%	1.5%	1%	DD PE	PE SB	IC PE	IC PE	IC PE	Effect on cleavage-stage embryos ([1]; 0.5% (lowest concentration examined), after 24 hours of exposure): completely lethal; Phenotypic effects above MTC after 24 hours (average penetrance at least 50%) ([1]; exposure from 4 hpf): AP IC IP NO SO; Minimum embryotoxic concentration (rat embryos): 40 mM
C[S+](C)[O-] [Dimethyl sulfoxide (DMSO), Dimethyl sulfoxide]	2%	2%	2%	>2.5%	1.5%	2%	>2.5%	2%	1.5%			2.5%			2.5%		NB SB		GG IC IM LP	NB LP	Adverse effects at maximum concentration tested (zebrafish embryos): no adverse effects; MTC / tolerated concentration as summarised in the text for a subset of stages ([1]; BSA: intermediate stages, DMSO: embryos, glycerol: younger larvae and embryos): at least 2.5%; Levels at which abnormalities or lethality begin in at least a subset of treated animals ([1]; larvae): 2–2.5%
CC(O)CO (stereo not drawn) [Propylene glycol]		>2.5%	>2.5%	>2.5%	2%	1.5%	>2.5%	>2.5%	1.5%												MTC / tolerated concentration ([1]; over all or most developmental stages analyzed, 24-hour exposure): at least 2.5%; Toxicity of brief exposures to cryoprotectant solutions (early embryos): toxic
CC1(C)OCC(CO)O1 (stereo not drawn) [Solketal]	0.5%	0.5%	0.5%	<0.5%	0.5%	<0.5%	0.5%	<0.5%	<0.5%	1%	1%	1%	0.5%	1%	0.5%	AP BH IC IM NB PE	AH IC IM HJ PE	BC LP	NB LP SB+	NB LP	Maximum-tolerated concentration (MTC) ([1]; exposure for 24 hours beginning at 2–4 cell stage, listed as solketal): < 0.5%; Phenotypic effects above MTC after 24 hours (average penetrance at least 50%) ([1]; exposure from 2 dpf): AP BH IC PE
Albumin (BSA): bovine serum albumin (BSA), carrier		<0.5%	0.5%	<0.5%	0.5%		<0.5%	≥2.5%	≥2.5%			1.5%	1.5%	0.5%				IC PE			Delay in development relative to control ([1]; 0.5% from 4-cell stage, embryos at 1 dpf, morphologically normal): up to 9 hours; Lowest concentration at which an average penetrance of at least 50% was observed for the phenotypic effects ([1]; 24 hours exposure from 2–4 cell stage): 0.5%; Maximum-tolerated concentration (MTC) ([1]; exposure for 24 hours beginning at 5 dpf, listed as BSA): ≥ 2.5%; Maximum-tolerated concentration (MTC) ([1]; exposure for 24 hours beginning at 7 dpf, listed as BSA): ≥ 2.5%
